Experimental data: US20240043473A1, “NOOTROPIC PEPTIDES FOR TREATING LYSOSOMAL STORAGE DISEASES” (Phoenix Nest Inc., priority 2021, published 2024)
Entries after “also recorded” stand apart in the source; their conditions may differ. No end group written: not given here.

Tests used:
[1] = Body weight measured weekly during chronic administration; format: in vivo, mouse; settings: chronic intranasal administration; Hgsnat^P304L or WT mice
Experimental: WT, and Hgsnat^P304L mice were randomly assigned to the treatment and control groups. The cohort size (18 mice/sex/treatment) was calculated based on mean variability of replicates in previous behavioral tests in Hgsnat^P304L mice to detect a ˜40% difference between means (power=0.8). Treatment was started at weaning (P21) which corresponds to neurodevelopmental human age of 3 years, the time of disease onset for majority of Sanfilippo patients. Since most patients are diagnosed post-symptomatically, this age would most likely become the treatment starting point for the most of patients. […] To test if chronic administration of the peptide results in major metabolic changes, the mouse body weight was measured weekly.

Hgsnat^P304L mice = assay: Wet spleen weight at sacrifice (splenomegaly); format: in vivo, mouse; settings: chronic daily 50 μg/kg BW; Hgsnat^P304L mice at sacrifice (9.5-11 months); vs saline
[2] = test system: iPSC-derived cortical neurons from MPS IIIA and MPS IIIC patients; assay: Synaptic protein markers and BDNF in iPSC-derived cultured cortical neurons (immunocytochemistry); format: cell-based, human; settings: 10 μM in culture; MPS IIIA and MPS IIIC patient neurons
Text: Generation of iPSC lines MPS III patient fibroblast lines were obtained from the Coriell Institute for Medical Research (NJ, USA), or from the hospitals were the patients were diagnosed/followed with the informed consent of patient's families. The fibroblasts were propagated in Dulbecco's Modified Eagle Medium (DMEM, ThermoFisher) with 10% fetal bovine serum (FBS) and 1% Antibiotic-Antimycotic (15240062, ThermoFisher) and tested for mycoplasma. The cells were further reprogrammed into iPSCs at the CHUSJ iPSC Platform using a non-integrating CytoTune-Sendai viral reprograming kit (A16517, Thermo Fisher Scientific, MA, USA) according to the manufacture's protocol. Two colonies for each iPSC line were used for further proliferation, iPSCs were expanded and maintained on six-well plates coated with Matrigel mTeSR™ Plus medium at 37° C., in 5% CO2/5% O2 atmosphere following the medium manufacturer's protocol. […]
Induction of cortical NPC and cortical neurons iPSCs were differentiated into cortical forebrain committed neural precursor cells (NPCs) by dual SMAD inhibition by passaging iPSCs over to poly-L-ornithine (PO)/laminin coated dishes. […] After induction for 3 weeks the cells were analyzed by ICH for the presence of neuronal markers PAX6, and TUBB3, confirmation of disease-specific enzymatic deficiencies and lysosomal storage phenotype (increased size of LAMP2+ puncta by ICH). […]

For “AVP6: N-terminally acetylated Semax, a nootropic peptide having the amino acid sequence of MEHFPGP (SEQ ID NO:1) (Ac-MEHFPGP)”, the “body weight and body weight gain, treated vs untreated” value [1] was “No difference in body weight and body weight gain”, the “spleen weight / splenomegaly” value (Hgsnat^P304L mice) was “significantly lower spleen weight” and the “levels of BDNF+, VGLUT1+ and PSD-95+ puncta” value [2] was “significantly increased”. For the same substance, the “levels of VGLUT1+, PSD-95+, SYN1+ and BDNF+ puncta” value [2] was “rescues reduced levels of synaptic markers; also recorded: significantly increased”.
